From patent US6051557A, “Methods of enhancing functioning of the upper gastrointestinal tract” (1149336 Ontario Inc., priority 1998, dated 2000)

Key:
Type in all cases: in vivo
[1] = tested on: indomethacin induced mucosal epithelial damage; assay: indomethacin induced gastroenterocolitis in mice; conditions: 0.75 μg s.c. twice daily
Excerpt: In this experiment, the prophylactic and therepeutic effect of GLP-2 on indomethacin induced mucosal epithelial damage was studied.
GLP-2 administration to mice and rats stimulates mucosal growth in both the small and large intestine via activation of crypt cell proliferation and inhibition of enterocyte apoptosis. To address the possibility that GLP-2 may be useful for the therapeutic and/or prophylactic treatment of mucosal epithelial damage, we have studied the use of a novel human GLP-2 analog, h[Gly^2 ]-GLP-2, in mice with experimental indomethacin induced gastroenterocolitis.
Six to eight week old female CD1 mice (approximately 22-28 g, Charles River) were housed in plastic bottom, wire lid cages and maintained on a 12 hr light/dark cycle and allowed chow and water ad libitum throughout the study. The day prior to commencing the experiment, mice were weighed using a Mettler PJ300 scale and randomly allocated to a treatment group. Each treatment group consisted of 5 mice housed together. Subcutaneous injections of PBS or h[Gly^2 ]-GLP-2 peptide were given in the right hind quarter twice a day at 9 am and 7 pm. Injections started 4 days before indomethacin administration. Mice were fasted the night prior to receiving the first dose of indomethacin.
Mice were sacrificed between 9 am and 5 pm. […] Small and large bowel length were also measured. […]

[2] = tested on: mucosal epithelium and muscle layer of the esophagus; assay: BrdU cell proliferation in mouse esophagus; conditions: female CD1 mice, 2.5 μg s.c. twice daily, 50 hr period, vs PBS
Excerpt: In this experiment, the effect of GLP-2 on cell proliferation of the mucosal epithelium and muscle layer of the esophagus was examined.
Female CD1 mice (6 weeks of age, approx. 25 g, Charles River) were housed in plastic bottom, wire lid cages and maintained on a 12 hr light/dark cycle and allowed chow and water ad libitum. The mice were weighed using a Mettler PJ300 scale and randomly allocated to either the control group (phosphate buffer saline injection ("PBS")) or the treatment group (human [Gly^2 ]GLP-2 injection). Each control or treatment group consisted of 2 mice housed together in 1 cage.
The female CD1 mice were treated (subcutaneously) with either human [Gly^2 ]GLP-2 2.5 μg or PBS alone, twice daily (8 a.m. and 6 p.m.) for 2 days prior to the bromodeoxyuridine ("BrdU") injection (50 ug/g body weight, in 0.5 ml). The mice received a total of 5 injections of either human [Gly^2 ]GLP-2 or saline over the previous 50 hours. Mice were fasted 21 hours before sacrifice. The mice were sacrificed 2 hours after receiving the BrdU injection. Upon sacrifice, sections of distal esophagus (the last 2 cm of esophagus adjacent to the gastroduodenal junction) were taken for histological analysis.
The esophageal tissues were fixed in 10% buffered formalin for over 24 hours and then placed in 70% alcohol prior to processing. […]

esophagus = assay: total protein content of mouse esophagus (modified Bradford assay); conditions: female CD1 mice, 2.5 ug s.c. twice daily for 10 days, vs PBS
Description: In this experiment, the effect of human [Gly^2 ]GLP-2 on protein synthesis in the mouse esophagus was examined. Female CD1 mice (6 weeks old) were housed and fed as described in Example 1. Two groups of mice (n=5 per group) were treated twice daily (subcutaneously) with either 0.5 ml PBS alone (control) or 2.5 ug in 0.5 ml PBS for 10 days. Following treatment, mice were anesthetized with CO2 and sacrificed for analysis. One (1) cm segments of esophagus tissue, between 2-4 cm proximal to the gastroduodenal junction, were harvested for analysis of total cellular protein. The 1 cm esophageal segments were placed in 1 ml of PBS and homogenized using a Polytron. Aliquots of the homogenate were taken for protein determination of protein content using the modified Bradford assay (BIORAD).

stomach = stomach mass after oral administration in drinking water; conditions: female CD1 mice, approx. 100 μg per day in drinking water, 12 days, p<0.05 vs normal drinking water
Description: In this experiment, the effect of GLP-2 on the stomach mass was examined. Female CD1 mice (6 weeks old) were treated with human [[…] ]GLP-2 by oral administration in drinking water. The drinking water contained 4.3 μg/ml of human [[…] ]GLP-2 and was prepared fresh daily. Each mouse received approximately 100 μg of human [[…] ]GLP-2 per day. Following 12 days of treatment the mice were fasted for 24 hours, anesthetized with CO2 and sacrificed. The stomach of each mouse was removed and weighed.

What does the source list for `CC[C@H](C)[C@H](NC(=O)[C@H](Cc1ccccc1)NC(=O)[C@H](CC(=O)O)NC(=O)[C@H](CCCNC(=N)N)NC(=O)[C@H](C)NC(=O)[C@H](C)NC(=O)[C@H](CC(C)C)NC(=O)[C@H](CC(N)=O)NC(=O)[C@H](CC(=O)O)NC(=O)[C@H](CC(C)C)NC(=O)[C@@H](NC(=O)[C@@H](NC(=O)[C@H](CC(N)=O)NC(=O)[C@H](CCSC)NC(=O)[C@H](CCC(=O)O)NC(=O)[C@H](CC(=O)O)NC(=O)[C@H](CO)NC(=O)[C@H](Cc1ccccc1)NC(=O)[C@H](CO)NC(=O)CNC(=O)[C@H](CC(=O)O)NC(=O)CNC(=O)[C@@H](N)Cc1c[nH]cn1)[C@@H](C)O)[C@@H](C)CC)C(=O)N[C@@H](CC(N)=O)C(=O)N[C@@H](Cc1c[nH]c2ccccc12)C(=O)N[C@@H](CC(C)C)C(=O)N[C@H](C(=O)N[C@@H](CCC(N)=O)C(=O)N[C@H](C(=O)N[C@@H](CCCCN)C(=O)N[C@H](C(=O)N[C@H](C(=O)N[C@@H](CC(=O)O)C(=O)O)[C@@H](C)O)[C@@H](C)CC)[C@@H](C)O)[C@@H](C)CC` [human [Gly^2]GLP-2]?
majority of parameters assessed, especially markers of epithelial damage/inflammation ([1]; indomethacin-treated mice, vs saline): significantly improved; survival ([1]; treatment groups II-V, indomethacin 7 mg/kg, saline-treated controls 45-50%): 75-95%; cellular proliferation of the mucosal epithelium of the esophagus (number of BrDU-positive cells) [2]: significant increases; cellular proliferation of the muscle layer of the esophagus (number of BrDU-positive cells) [2]: significant increases; protein synthesis (total protein content) in esophagus tissue (esophagus): increase; weights of the stomachs (stomach): significantly increase
